Where a name gives a salt, the structure may show the parent alone.
Key:
FGFR-4 kinase = FGFR-4 kinase (Homo sapiens, UniProt P22455); assay: FGFR-4 kinase activity, homogeneous time-resolved fluorescence (HTRF) method; assay type: biochemical; settings: Table 1; ATP 25 μM, FGFR-4 kinase 1 nM; read-out: FGFR4 IC50
Experimental: 1. In vitro determination of the protein activity of compounds: The FGFR-4 kinase activity detection platform was established by the homogeneous time-resolved fluorescence (HTRF) method, and the activity of the compound was determined. 1000 μM compounds were subjected to 3-fold gradient dilution in 100% DMSO 11 times (12 concentrations in total), 4 μL diluent from each concentration was added to 96 μL of reaction buffer (50 mM HEPES, pH 7.4, 5 mM MnCl2, 0.1 mM NaVO3, 0.001% Tween-20, 0.01% BAS, 1 mM DTT) and mixed well, as a 4* compound (final concentration of 0.017 nM-1000 nM) for later use. 2 * FGFR-4 kinase (final concentration of 1 nM) was formulated using reaction buffer and 4*substrate (ATP+TK peptide) (TK peptide, HTRF® KinEASETM-TK, purchased from Cisbio, TK peptide, final concentration of 1 μM, ATP final concentration of 25 μ M) was formulated using reaction buffer. 2.5 μL of 4*compound and then 5 μL of 2 * FGFR-4 kinase were added to a 384-well plate (OptiPlate-384, purchased from PerkinElmer), the mixture was mixed by centrifugation, and 2.5 μL of 4 * substrate mixture was added to start the reaction (total reaction volume of 10 µL). The 384-well plate was placed in an incubator 23° C. and stirred for 60 min before the reaction was stopped by the addition of 5 μL of Eu^3+cryptate-labeled anti-phosphotyrosine antibody (TRF® KinEASE™-TK, purchased from Cisbio) and 5 μL of Streptavidin-XL-665 (HTRF® KinEASE™-TK, purchased from Cisbio). After incubation in the incubator for 1 h, fluorescence values (excitation at 320 nm, detecting emitted light at 665 nm and 620 nm, and a ratio of the two as enzyme activity) were read on Envision (purchased from PerkinElmer). The enzyme activity of each compound was measured at 12 concentrations, and the ICso value of the compound was calculated using GraphPad Prism 5.0 software.
The FGFR-4 kinase activity detection platform was established by homogeneous time-resolved fluorescence (HTRF) method, and the activity of compound was determined. 1000 μM compounds were subjected to 3-fold gradient dilution in 100% DMSO 11 times (12 concentrations in total), 4 μL of diluent from each concentration was added to 96 μL of reaction buffer (50 mM HEPES, pH 7.4, 5 mM MnCl2, 0.1 mM NaVO3, 0.001% Tween-20, 0.01% BAS, 1 mM DTT) and mixed well, as a 4* compound (final concentration of 0.017 nM-1000 nM) for later use. 2 * FGFR-4 kinase (final concentration of 1 nM) was formulated using reaction buffer and 4*substrate (ATP+TK peptide)(TK peptide, HTRF® KinEASE™-TK, purchased from Cisbio, TK peptide, final concentration of 1 μM, ATP final concentration of 25 μM) was formulated using reaction buffer. 2.5 μL of 4 * compound and then 5 μL of 2 * FGFR-4 kinase were added to a 384-well plate (OptiPlate-384, purchased from PerkinElmer), the mixture was mixed by centrifugation, and 2.5 μL of 4 * substrate mixture was added to start the reaction (total reaction volume of 10 μL). The 384-well plate was placed in an incubator 23° C. and stirred for 60 min before the reaction was stopped by the addition of 5 μL of Eu^3+cryptate-labled anti-phosphotyrosine antibody (TRF® KinEASE™-TK, purchased from Cisbio) and 5 μL of Streptavidin-XL-665 (HTRF® KinEASE™-TK, purchased from Cisbio). After incubation in the incubator for 1 h, fluorescence values (excitation at 320 nm, detecting emitted light at 665 nm and 620 nm, and a ratio of the two as enzyme activity) were read on Envision (purchased from PerkinElmer). The enzyme activity of each compopund was measured at 12 concentrations, and the ICso value of the compound was calculated using GraphPad prism 5.0 software.

[1] = tested on: Human hepatoma cells Hep3b; assay: Cell proliferation inhibition, Cell Titer-Glo; assay type: cell-based; settings: Hep3B, 72 h, Table 1, 3 days incubation
Experimental: 2. Determination of cell proliferation activity of compounds:
Cell Titer-Glo ® detection reagent from Promega was used to establish the suspension cell proliferation inhibition screening method. Human hepatoma cells Hep3b (Xiehe Cell Research Center) were cultured in 25 cm^2 or 75 cm^2 plastic tissue culture flasks (Corning®) filled with MEM (Gibco®) medium supplemented with 10% fetal bovine serum (Hyclone®) under 37° C., 95% air and 5% CO2, and subcultured 2-3 times a week.
(§1) Hep3b cells were seeded in a 96-well cell culture plate (Corning®) at a density of 3×10^3 cells/well, […], and cultured under 37° C., 95% air, and 5% CO2. After 24 h the test compound was added: 10 mM compounds (dissolved in DMSO) were subjected to 3-fold gradient dilution in DMSO , […] of diluent from each concentration was added to […] of serum-free medium, and finally […] of compound diluted in the medium was added to the plate seeded with cells. The final concentration of DMSO in the cell culture medium was 0.1% and the final concentration of the test compound was 0.3 nM-[…]. The above cells were incubated for 3 days under 37° C.
After 3 days, the cell viability assay was performed by the Cell Titer-Glo (Promega) kit, and finally, the inhibitory concentration 50% of the compound on cell proliferation, i.e. the IC 50 value, was calculated by the GraphPad Prism 5.0 program.
as §1, with “DMSO,” for “DMSO ,”, “finally,” for “finally”, “of” for “of the”
After 3 days, the cell viability assay was performed by the Cell Titer-Glo (Promega) kit, and finally the inhibitory concentration 50% of the compound on cell proliferation, i.e. the IC 50 value, was calculated by the GraphPad Prism 5.0 program.

[2] = Pharmacokinetics in male SD rats, single intragastric administration; assay type: in vivo; settings: rat, po, 5 mg/kg suspension, plasma, first PK table
Experimental: (§2) Male SD rats (Beijing Vital River Laboratory Animal Technology Co., Ltd.) were divided into groups of 3 rats each. The rats were subjected to 5 mg/kg suspension of the test sample by single intragastric administration, respectively. Animals were fasted overnight prior to the experiment from 10 h before dosing to 4 h after dosing. Blood was collected 0.25, 0.5, 1, 2, 4, 6, 8, and 24 h after administration. After isoflurane anesthesia using a small animal anesthesia machine, 0.3 mL of whole blood samples was collected from the fundus venous plexus, placed in a heparin anticoagulant tube, and were centrifuged at 4° C., 4000 rpm for 5 min, plasma was transferred to the centrifuge tube, and stored at −80° C. until analysis. Samples in the plasma were extracted using protein precipitation and the extracts were analyzed by LC/MS/MS.
as §2, with “taken through” for “collected from”, “-80°” for “−80°”

Sequence of FGFR-4 kinase (P22455 22-802): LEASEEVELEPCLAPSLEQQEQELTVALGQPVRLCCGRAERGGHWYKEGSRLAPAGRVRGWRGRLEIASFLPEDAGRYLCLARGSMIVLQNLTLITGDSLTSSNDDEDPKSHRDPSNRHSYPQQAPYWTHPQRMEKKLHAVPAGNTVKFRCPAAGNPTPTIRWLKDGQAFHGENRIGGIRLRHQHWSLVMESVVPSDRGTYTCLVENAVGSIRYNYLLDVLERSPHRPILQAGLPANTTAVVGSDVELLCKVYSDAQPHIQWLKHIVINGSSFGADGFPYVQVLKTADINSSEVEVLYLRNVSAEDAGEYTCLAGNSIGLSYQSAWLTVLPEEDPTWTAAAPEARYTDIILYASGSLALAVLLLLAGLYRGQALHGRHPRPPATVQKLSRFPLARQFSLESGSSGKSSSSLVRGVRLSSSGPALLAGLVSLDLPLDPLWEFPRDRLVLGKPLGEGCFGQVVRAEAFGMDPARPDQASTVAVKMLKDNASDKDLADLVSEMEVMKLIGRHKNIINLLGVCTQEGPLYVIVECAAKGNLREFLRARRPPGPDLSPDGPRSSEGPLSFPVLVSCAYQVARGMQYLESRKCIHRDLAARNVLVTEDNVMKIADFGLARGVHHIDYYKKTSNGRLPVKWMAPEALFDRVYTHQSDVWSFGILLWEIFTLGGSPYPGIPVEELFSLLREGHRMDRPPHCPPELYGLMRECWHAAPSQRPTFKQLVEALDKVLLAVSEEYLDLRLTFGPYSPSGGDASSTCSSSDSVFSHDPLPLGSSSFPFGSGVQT

IC50 (FGFR-4 kinase) [nM] | IC50 [1] [nM] | SMILES | other results
 | 20.3 | C=CC(=O)Nc1cc(-c2cc3c(cn2)cc(-c2c(Cl)c(OC)cc(OC)c2Cl)c2nccn23)c(OC)cc1N1CCOC2(CC2)C1 [Example 5, N-(5-(4-(2,6-dichloro-3,5-dimethoxyphenyl)imidazo[1,2-a][1,6]naphthyridin-8-yl)-4-methoxy-2-(4-oxa-7-azaspiro[2.5]octan-7-yl)phenyl)acrylamide] | 
2.43 | 74.7 | C=CC(=O)Nc1cc(-c2cc3c(cn2)cc(-c2c(Cl)c(OC)cc(OC)c2Cl)c2nccn23)c(OC)cc1N1CCNC2(CC2)C1 [Example 9, N-(5-(4-(2,6-dichloro-3,5-dimethoxyphenyl)imidazo[1,2-a][1,6]naphthyridin-8-yl)-4-methoxy-2-(4,7-diazaspiro[2.5]octan-7-yl)phenyl)acrylamide trifluoroacetate] | 
5.79 | 71.7 | C=CC(=O)Nc1cc(-c2cc3c(cn2)cc(-c2c(Cl)c(OC)cc(OC)c2Cl)c2nccn23)c(OC)cc1N1CCC2(CC1)CCN(C1CC1)CC2 [Example 19, N-(2-(9-cyclopropyl-3,9-diazaspiro[5.5]undecan-3-yl)-5-(4-(2,6-dichloro-3,5-dimethoxyphenyl)imidazo[1,2-a][1,6]naphthyridin-8-yl)-4-methoxyphenyl)acrylamide] | 
2.54 |  | C=CC(=O)Nc1cc(-c2cc3c(cn2)cc(-c2c(Cl)c(OC)cc(OC)c2Cl)c2nccn23)c(OC)cc1N1CCC2(COC2)C1 [Example 20, N-(5-(4-(2,6-dichloro-3,5-dimethoxyphenyl)imidazo[1,2-a][1,6]naphthyridin-8-yl)-4-methoxy-2-(2-oxa-6-azaspiro[3.4]octan-6-yl)phenyl)acrylamide] | 
5.61 |  | C=CC(=O)Nc1cc(-c2cc3c(cn2)cc(-c2c(Cl)c(OC)cc(OC)c2Cl)c2nccn23)c(OC)cc1N1CCC2(CCN(C)C2)C1 (stereo not shown) [Example 22] | 
3.85 | 142 | C=CC(=O)Nc1cc(-c2cc3c(cn2)cc(-c2c(Cl)c(OC)cc(OC)c2Cl)c2nccn23)c(OC)cc1N1CCN(C)C2(CC2)C1 [Example 23, N-(5-(4-(2,6-dichloro-3,5-dimethoxyphenyl)imidazo[1,2-a][1,6]naphthyridin-8-yl)-4-methoxy-2-(4-methyl-4,7-diazaspiro[2.5]octan-7-yl)phenyl)acrylamide] | 

Second part, the compound before the results:

SMILES | IC50 (FGFR-4 kinase) [nM] | IC50 [1] [nM] | other results
C=CC(=O)Nc1cc(-c2cc3c(cn2)cc(-c2c(Cl)c(OC)cc(OC)c2Cl)c2nccn23)c(OC)cc1N1CC2COCC2C1 (stereo not shown) [Example 4, N-(5-(4-(2,6-dichloro-3,5-dimethoxyphenyl)imidazo[1,2-a][1,6]naphthyridin-8-yl)-4-methoxy-2-(tetrahydro-1H-furo[3,4-c]pyrrol-5(3H)-yl)phenyl)acrylamide] | 2.25 |  | 
C=CC(=O)Nc1cc(-c2cc3c(cn2)cc(-c2c(Cl)c(OC)cc(OC)c2Cl)c2nccn23)c(OC)cc1N1CC2CCC(C1)N2C(C)=O [Example 7, N-(2-(8-acetyl-3,8-diazabicyclo[3 .2.1]octan-3-yl)-5-(4-(2,6-dichloro-3,5-dimethoxyphenyl)imidazo[1,2-a][1,6]naphthyridin-8-yl)-4-methoxyphenyl)acrylamide] | 1.74 | 83.6 | 
C=CC(=O)Nc1cc(-c2cc3c(cn2)cc(-c2c(Cl)c(OC)cc(OC)c2Cl)c2nccn23)c(OC)cc1N1CCN(C(C)=O)C2(CC2)C1 [Example 11, N-(2-(4-acetyl-4,7-diazaspiro[2.5]octan-7-yl)-5-(4-(2,6-dichloro-3,5-dimethoxyphenyl)imidazo[1,2-a][1,6]naphthyridin-8-yl)-4-methoxyphenyl)acrylamide] | 3.82 | 68.3 | 
CC#CC(=O)Nc1cc(-c2cc3c(cn2)cc(-c2c(Cl)c(OC)cc(OC)c2Cl)c2nccn23)c(OC)cc1N1C[C@@H]2C[C@H]1CO2 [Example 27, N-(2-((1S,4S)-2-oxa-5-azabicyclo[2.2.1]heptan-5-yl)-5-(4-(2,6-dichloro-3,5-dimethoxyphenyl)imidazo[1,2-a][1,6]naphthyridin-8-yl)-4-methoxyphenyl)but-2-ynamide] |  |  | AUC(0-inf) [2]: 1860 ng·h/mL; Cmax [2]: 452 ng/mL; Tmax [2]: 3.33 h; half-life ([2]; read-out: T1/2 (converted)): 2.73 h
C=CC(=O)Nc1cc(-c2cc3c(cn2)cc(-c2c(Cl)c(OC)cc(OC)c2Cl)c2nccn23)c(OC)cc1N1CCO[C@@H](C)C1 [Example 38, (S)-N-(5-(4-(2,6-dichloro-3,5-dimethoxyphenyl)imidazo[1,2-a][1,6]naphthyridin-8-yl)-4-methoxy-2-(2-methylmorpholino)phenyl)acrylamide] | 5.07 |  | 
